{"source": "patent US7335756B2", "about": "“Retinoic acid metabolizing cytochrome P450” (Cytochroma Inc., priority 2001, dated 2008)", "key": {"P450RAI-3 [1]": {"target": "T1, P450RAI-3 (Homo sapiens, UniProt Q6V0L0, F447L)", "T1 sequence (Q6V0L0 1-522 F447L)": "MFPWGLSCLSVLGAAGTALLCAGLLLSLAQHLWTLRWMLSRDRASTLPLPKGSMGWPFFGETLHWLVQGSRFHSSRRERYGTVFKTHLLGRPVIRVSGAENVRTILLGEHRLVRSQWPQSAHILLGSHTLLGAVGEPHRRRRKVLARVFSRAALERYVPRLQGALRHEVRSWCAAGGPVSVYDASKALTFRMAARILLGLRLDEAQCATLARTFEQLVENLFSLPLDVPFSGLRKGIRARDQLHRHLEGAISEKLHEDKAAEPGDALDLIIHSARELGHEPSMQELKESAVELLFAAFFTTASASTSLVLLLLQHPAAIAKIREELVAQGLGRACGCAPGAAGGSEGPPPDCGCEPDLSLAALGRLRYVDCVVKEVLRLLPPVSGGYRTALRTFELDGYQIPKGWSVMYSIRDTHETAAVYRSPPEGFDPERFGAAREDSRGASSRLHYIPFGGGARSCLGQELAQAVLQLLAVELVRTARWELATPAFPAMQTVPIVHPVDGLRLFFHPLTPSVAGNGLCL", "experiment": "[3H]-RA-metabolism inhibition, transient Cos-P450RAI-3 cell-based assay", "design": "expressed in transfected cells; host or cells: COS-1 (transient, pcDNA-P450RAI-3, Fugene)", "settings": "at lower concentrations", "experimental": "(§1) The purpose of these experiments is to determine the specific substrates for P450RAI-3. […] The RA metabolism reaction was started by the addition of 50 ul of [^3H]-RA solution (20000 cpm, 2 nM final concentration). Cells were incubated for 3 hours in a humidified CO2 incubator at 37 degrees Celsius. The reaction was stopped by the addition of 5 ul of 10% acetic acid. Organic and aqueous soluble radio-labelled metabolites were extracted using the Bligh-Dyer procedure."}, "P450RAI-3 [2]": {"target": "T1, P450RAI-3", "experiment": "ATRA and 9-cis-RA binding assay, Sf9-Bac-P450RAI-3 insect microsomes", "settings": "Kd, substrate binding to P450RAI-3, insect microsomes; Table 4 prints no unit, nM"}, "P450RAI-3 [3]": {"target": "T1, P450RAI-3", "experiment": "LC/MS analysis of ATRA and 9-cis-RA metabolism in Hela-P450RAI-3 stable cells", "settings": "5 hours", "experimental": "After 5 hours incubation at 37° C., cells were acidified with acetic acid and total retinoids were extracted using Ethyl acetate method. The organic upper layer was pooled and evaporated in speed-vacuum, and dried residues were dissolved in HPLC mobile solvent and analyzed in LC/MS.\nThe HPLC system consisted of a waters alliance 2690 separations module. Chromatography was obtained on an Eclipse X DB-C18 reverse phase column (5 um, 2.1×150 mm from HP). A gradient elution program was used using acetonitrile, water and 10% acetic acid. The flow was held at 0.2 ml/min.\nMass Spectrometry condition used for this work consisted of a Micro-mass Quatro Ultima Tandem triple quadruple mass spectrometer equipped with electrospray interface (ESI) and operated in a negative mode."}, "P450RAI-3 [4]": {"target": "T1, P450RAI-3", "experiment": "[3H]-RA-metabolism inhibition (substrate competition) in P450RAI-3 stable transfected Hela cells", "format": "cell-based", "design": "expressed in transfected cells", "settings": "2 nM [3H]-RA, read-out: ID50, competition for P450RAI-3 [3H]-RA metabolism", "experimental": "as §1"}, "P450RAI-3 [5]": {"target": "T1, P450RAI-3", "experiment": "ATRA / 9-cis-RA metabolism in pcDNA-P450RAI-3 transfected Cos-1 cells (Bligh-Dyer, HPLC)", "format": "cell-based", "design": "expressed in transfected cells; host or cells: COS-1 (transient, pcDNA-P450RAI-3, Fugene)", "settings": "2 nM radio-labeled substrate, 3 hours", "experimental": "Mammalian Cos-1 cells were transfected with either pcDNA-P450RAI-3 or pcDNA-control vector using Fugene™ (Roche diagnostic) according to the manufacturers directions. After 48 hours post-tranfection, cells were washed with PBS and assessed for ATRA-metabolism activity as described Briefly, transfected cells were incubated with radio-labeled ^3[H]-ATRA (18000 cpm, 2 nM) for 3 hours. Organic and Water-soluble metabolites were extracted using Bligh-Dyer procedure and radioactivity counted (FIG. 10).\nHPLC analysis of the organic metabolites: the Bligh-Dyer organic button-layer was dried out and residues were suspended in HPLC solvent and then analyzed by HPLC as described in [White et al, PNAS, vol 97, pg 6403-6408], FIG. 11.\nMammalian Cos-1 cells were transfected with either pcDNA-P450RAI-3 or pcDNA-control vector according to the manufacturers directions using Fugene (Roche). After 48 hours post-tranfection, cells were washed with PBS and assessed for 9-cis-RA-metabolism activity as described using Bligh-Dyer procedure. Briefly, transfected cells were incubated with radio-labeled ^3[H]-9-cis-RA (38000 cpm, 2 nM) for 3 hours. Organic and Water-soluble metabolites were extracted using Bligh-Dyer procedure and radioactivity counted, FIG. 19."}, "P450RAI-3 [6]": {"target": "T1, P450RAI-3", "experiment": "RA-metabolism cell based assay in P450RAI-3-infected Sf9 cells", "design": "expressed in transfected cells", "settings": "2 nM [3H]-RA", "experimental": "Recombinant baculovirus expressing either P450RAI-3 or CYP26B (Bac-P450RAI-3 or Bac-CYP26B or CYP26B) was prepared and titrated by end-point dilution and infection of Sf9 cells in 96-well format. Baculovirus expressing vector was co-transfected into Sf9-insect cells. Infected cells were assessed for RA-metabolism after 72 hours post transfection using RA-metabolism cell based assay as follows: the RA-metabolism reaction was started by adding 50 μl of [^3H]-RA solution (20000 cpm, 2 nM final concentration) using an automatic repeating-pipette.\nCells were incubated for 3 hours. The reaction was stopped by adding 5 μl of 10% acetic acid. Organic and aqueous soluble radio-labelled metabolites were extracted using the Bligh-Dyer procedure."}}}
{"smiles": "CC1=C(/C=C/C(C)=C/C=C/C(C)=C/C(=O)O)C(C)(C)CCC1", "note": "[ATRA, all-trans-retinoic-acid]", "values": [{"measurement": "competition / inhibition of P450RAI-3", "setting": "P450RAI-3 [1]", "value": "competed"}, {"measurement": "Kd", "setting": "P450RAI-3 [2]", "value": 45, "unit": "nM"}, {"measurement": "metabolites formed by P450RAI-3", "setting": "P450RAI-3 [3]", "value": "hydroxy and oxo-metabolites"}, {"measurement": "IC50", "setting": "P450RAI-3 [4]", "value": 300, "unit": "nM"}, {"measurement": "metabolism by P450RAI-3", "setting": "P450RAI-3 [5]", "value": "efficiently metabolize ATRA to polar metabolites"}, {"measurement": "metabolism by P450RAI-3-infected Sf9-cells", "setting": "P450RAI-3 [6]", "value": "metabolized ATRA and converted it to water-soluble metabolites"}]}
